{"source": "patent US11607378B2", "about": "“Cosmetic composition comprising amide-based compound” (Neopharm Co., Ltd., priority 2020, dated 2023)", "key": {"p16^INK4A": {"system": "p16^INK4A", "experiment": "Expression level of p16^INK4A by Western blot after blue light", "format": "cell-based", "details": "human dermal fibroblasts, blue light 40 J/cm^2, sample 100 μM, 24 hours, Western blot (FIG. 1)", "experimental": "(1) An expression level of p16^INK4A was determined through Western blot in Examples and Comparative Examples of the present invention.\nSpecifically, human dermal fibroblasts were cultured in a 12-well plate containing a Dulbecco's modified eagle medium (DMEM) medium supplemented with 10% fetal bovine serum (FBS) to attach 1.5×10^5 (1 mL/well) human dermal fibroblasts to the 12-well plate. The human dermal fibroblasts were cultured for 24 hours, and the medium was replaced with a 1% fetal bovine serum medium. Then, the human dermal fibroblasts were exposed to blue light of 40 J/cm^2, and then treated with each of the samples (100 μM) of Examples and Comparative Examples. Thereafter, the cells were additionally cultured at 37° C. for 24 hours. Then, the cells were recovered, and each of these samples was subjected to Western blot to analyze an expression level of p16^INK4A in the dermal fibroblasts. Each of samples of Examples 1 and 2 and Comparative Example 1 including the amide-based compound having a structure shown in the following Table 1 was used as the sample.\nThe control of FIG. 1 represents an experimental group in which the cells were not treated with the sample, and (-) represents a result of the experimental group exposed to blue light."}, "[1]": {"system": "reactive oxygen species (ROS) in dermal fibroblasts", "experiment": "Effect of removing reactive oxygen species (ROS), DCF-DA fluorescence image", "format": "cell-based, human", "details": "blue light 40 J/cm^2, sample 100 μM, 24 hours, DCF-DA (FIG. 2)", "experimental": "An effect of removing the reactive oxygen species was determined for the samples of Examples and Comparative Examples of the present invention.\nAn image analysis for generation of reactive oxygen species (ROS) in the cells was carried out by seeding 1×10^5 (100 μL/well) dermal fibroblasts in a 12-well plate to which a cover slip was attached. The dermal fibroblasts were exposed to blue light of 40 J/cm^2, and then treated with each of the samples (100 μM) of Examples and Comparative Examples. Then, the cells were additionally cultured at 37° C. for 24 hours.\nAfter 24 hours, 100 μM DCF-DA was put into each well, and the cells were cultured at 37° C. for 45 minutes. After the cells were washed with PBS, the stained cells were put on a microscope slide containing a mounting medium. A microscopic image was observed as a fluorescent microscopic image."}, "[2]": {"system": "superoxide dismutase (SOD)", "experiment": "Effect on antioxidant activity (Superoxide Dismutase Activity Assay kit) after blue light", "format": "cell-based, human", "details": "dermal fibroblasts, blue light 40 J/cm^2, sample 100 μM, 48 hours (FIG. 3)", "experimental": "Effects of the samples of Examples and Comparative Examples of the present invention on a change in antioxidant activity after irradiation with blue light were confirmed.\nSpecifically, 1.5×10^5 (1 mL/well) dermal fibroblasts were seeded in a 6-well plate, and cultured for 24 hours. The dermal fibroblasts were exposed to blue light of 40 J/cm^2, and then treated with each of the samples (100 μM) of Examples and Comparative Examples. After 48 hours, the cells were recovered. The cells were dissolved in a cell lysis buffer (pH 7.4) containing 0.1 M Tris/HCl, 0.5% Triton X-100, 5 mM β-ME, and 0.1 mg/ml PMSF, and a supernatant separated by centrifugation was then analyzed using a Superoxide Dismutase Activity Assay kit (ab65354). Then, the absorbance was measured at a wavelength of 450 nm in a microplate reader."}, "[3]": {"system": "carbonylated protein in artificial skin (EpiDermFT)", "experiment": "Effect on generation of carbonylated protein in artificial skin (DNPH assay, ICC staining)", "format": "cell-based", "details": "sample 0.3% 50 μL, blue light 40 J/cm^2, 48 hours, image J quantification (FIG. 4)", "experimental": "An artificial skin (EpiDermFT™ from MatTek, Ashland, USA) was purchased, and then stabilized for 18 hours in an exclusive medium (EFT-400). 50 μL of each of the samples of Examples and Comparative Examples was applied to the artificial skin at a concentration of 0.3%, and then cultured for an hour. The artificial skin was exposed to blue light of 40 J/cm^2. After 48 hours, the artificial skin tissue was fixed in 10% formaldehyde, and embedded into paraffin. Thereafter, the tissue was microtomed into sections with a size of […]. Then, the microtomed tissue was used to confirm an effect on a change in activity of the carbonylated protein.\nThe tissue was stained by a DNPH assay using an immunocytochemical (ICC) staining method, and then observed in a fluorescent microscopic image. Thereafter, the microscopic image was digitized using an image J program."}}, "data": [{"smiles": "CCCCC(CC)C(=O)NC(CO)CO", "note": "(centres unmarked) [Comparative Example 1, N-(1,3-dihydroxypropan-2-yl)-2-ethylhexanamide, reference compound]", "values": [{"measurement": "expression level of p16^INK4A", "setting": "p16^INK4A", "value": 120, "unit": "%"}, {"measurement": "inhibiting the generation of reactive oxygen species and removing the generated reactive oxygen species", "setting": "[1]", "value": "did not exhibit a significant effect"}]}, {"smiles": "CCCCC(C)C(=O)NCCO", "note": "(centres unmarked) [Example 2, N-(2-hydroxyethyl)-2-methyl-hexanamide]", "values": [{"measurement": "expression level of p16^INK4A", "setting": "p16^INK4A", "value": 53.9, "unit": "%"}, {"measurement": "SOD activity (which had been reduced by 32.64% by blue light)", "setting": "[2]", "value": 92.3, "unit": "%"}, {"measurement": "carbonylated protein (which had increased by 72.04% by blue light)", "setting": "[3]", "value": 16.67, "unit": "%"}]}]}
